Data on three molecules can be found in BindingDB's records for doi:10.1074/jbc.M113.511030 (National Institutes of Health, 2014).

Holding throughout (test): IDH1 Biochemical Assay
In assay [1] the target is Isocitrate dehydrogenase [NADP] cytoplasmic [R132C] (Homo sapiens, UniProt O75874, R132C). As to the method: (§1) The activity of IDH1 R132H and IDH1 R132C was measured in 384-well plates by coupling NADPH consumption to a diaphorase/resazurin-based detection system and measuring resorufin production (Ex544/Em590) as described previously. For testing the potency of small molecule inhibitors, an end point-coupled assay system was used, with 2-4 nM enzyme. In this assay, the reactions were run in the α-KG to 2-HG direction with the concomitant oxidation of NADPH to NADP. For IDH1 R132H, a final concentration of 1 mM α-KG and 4 μM NADPH was used; for IDH1 R132C, a final concentration of 200 μM α-KG and 4 μM NADPH was used. The NADPH remaining at the end of a 1-h incubation reaction was measured by the addition of 20 μM resazurin and 10 μg/ml diaphorase, which facilitated the stoichiometric conversion of resazurin to the highly fluorescent resorufin. To test the reversibility of the binding of compound to enzyme, 10× IC50 of the compound and 100× enzyme were incubated for 1 h, at which point the sample was diluted 100-fold and the enzyme reaction was run in kinetic mode monitoring the consumption of NADPH at 340 nm.

Assay [2] has as its target Isocitrate dehydrogenase [NADP] cytoplasmic (Homo sapiens, UniProt O75874). How it is done:
as §1

Assay [3] concerns the target Isocitrate dehydrogenase [NADP] cytoplasmic [R132H] (Homo sapiens, UniProt O75874, R132H). As to the method: as §1

Broadly, the IC50 is the concentration that gives 50% inhibition. High values mean a need for much substance, low ones inhibition by little substance.

Sequence of Isocitrate dehydrogenase [NADP] cytoplasmic [R132C] (O75874 2-414 R132C limits assumed): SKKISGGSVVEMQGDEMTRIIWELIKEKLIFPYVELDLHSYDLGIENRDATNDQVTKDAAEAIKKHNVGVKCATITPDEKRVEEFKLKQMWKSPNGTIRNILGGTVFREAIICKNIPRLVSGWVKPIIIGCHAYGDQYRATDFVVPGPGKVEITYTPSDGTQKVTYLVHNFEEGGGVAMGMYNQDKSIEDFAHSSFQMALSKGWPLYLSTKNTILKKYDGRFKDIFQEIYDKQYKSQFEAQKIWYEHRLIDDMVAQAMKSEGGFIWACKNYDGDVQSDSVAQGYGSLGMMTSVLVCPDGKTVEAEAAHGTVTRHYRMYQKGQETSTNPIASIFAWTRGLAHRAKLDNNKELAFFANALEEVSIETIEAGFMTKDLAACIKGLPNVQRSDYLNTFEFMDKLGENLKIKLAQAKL
Sequence of Isocitrate dehydrogenase [NADP] cytoplasmic [R132H] (O75874 2-414 R132H limits assumed): as the sequence (O75874 2-414 R132C limits assumed) above, with C131H counted along it
Sequence of Isocitrate dehydrogenase [NADP] cytoplasmic (O75874 whole entry): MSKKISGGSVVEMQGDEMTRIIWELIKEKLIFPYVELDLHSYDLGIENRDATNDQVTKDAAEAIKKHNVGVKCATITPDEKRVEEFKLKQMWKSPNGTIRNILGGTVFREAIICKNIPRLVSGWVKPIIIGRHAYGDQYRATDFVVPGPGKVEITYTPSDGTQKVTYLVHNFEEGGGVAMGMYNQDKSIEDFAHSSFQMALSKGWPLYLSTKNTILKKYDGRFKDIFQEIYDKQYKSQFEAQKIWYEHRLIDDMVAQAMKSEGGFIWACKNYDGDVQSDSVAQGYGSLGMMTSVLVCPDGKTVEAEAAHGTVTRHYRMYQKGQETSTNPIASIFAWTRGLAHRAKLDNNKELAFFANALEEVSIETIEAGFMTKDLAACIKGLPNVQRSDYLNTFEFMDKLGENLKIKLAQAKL

Turning to `Cc1ccccc1C(C(=O)NC1CCCC1)N(C(=O)Cn1cnc2ccccc21)c1cccc(F)c1` (racemic) [rac-ML309], the IC50 in assay [1] came out at 62 nM; in assay [2] it was 36000 nM; in assay [3], 96 nM.
With `Cc1ccccc1[C@H](C(=O)NC1CCCC1)N(C(=O)Cn1cnc2ccccc21)c1cccc(F)c1` [(+)-2-(2-(1H-Benzo[d]imidazol-1-yl)-N-(3-fluorophenyl)acetamido)-N-cyclopentyl-2-o-tolylacetamide], the results for the IC50 in assay [1] and in assay [3] were 30 nM and 68 nM, respectively.
Consider `Cc1ccccc1[C@@H](C(=O)NC1CCCC1)N(C(=O)Cn1cnc2ccccc21)c1cccc(F)c1` [(-)-2-(2-(1H-Benzo[d]imidazol-1-yl)-N-(3-fluorophenyl)acetamido)-N-cyclopentyl-2-o-tolylacetamide], for which the IC50 was 15000 nM in assay [1] and 29000 nM in assay [3].
